Experimental data reported in patent US7662832B2, “Pyrrolo[2,3-c]pyridine derivatives and processes for the preparation thereof” (priority 2004, dated 2010).

Legend:
[1] = target: Proton Pump (H^+/K^+-ATPase) (Sus scrofa, UniProt P19156); experiment: Inhibitory effects on proton pump (H^+/K^+-ATPase) activity; format: biochemical; details: hog gastric vesicles; K^+ stimulated H^+/K^+-ATPase activity; 30 minutes at 37° C.
[2] = target: T1, hog gastric H^+/K^+-ATPase (Sus scrofa, UniProt P19156); experiment: Reversible inhibition of hog gastric H^+/K^+-ATPase (washout method); format: biochemical
T1 construct: from tissue; host or cells: hog gastric fundic mucosa; gastric vesicles (microsomes), lyophilized
T1 sequence (P19156 2-1034 limits assumed): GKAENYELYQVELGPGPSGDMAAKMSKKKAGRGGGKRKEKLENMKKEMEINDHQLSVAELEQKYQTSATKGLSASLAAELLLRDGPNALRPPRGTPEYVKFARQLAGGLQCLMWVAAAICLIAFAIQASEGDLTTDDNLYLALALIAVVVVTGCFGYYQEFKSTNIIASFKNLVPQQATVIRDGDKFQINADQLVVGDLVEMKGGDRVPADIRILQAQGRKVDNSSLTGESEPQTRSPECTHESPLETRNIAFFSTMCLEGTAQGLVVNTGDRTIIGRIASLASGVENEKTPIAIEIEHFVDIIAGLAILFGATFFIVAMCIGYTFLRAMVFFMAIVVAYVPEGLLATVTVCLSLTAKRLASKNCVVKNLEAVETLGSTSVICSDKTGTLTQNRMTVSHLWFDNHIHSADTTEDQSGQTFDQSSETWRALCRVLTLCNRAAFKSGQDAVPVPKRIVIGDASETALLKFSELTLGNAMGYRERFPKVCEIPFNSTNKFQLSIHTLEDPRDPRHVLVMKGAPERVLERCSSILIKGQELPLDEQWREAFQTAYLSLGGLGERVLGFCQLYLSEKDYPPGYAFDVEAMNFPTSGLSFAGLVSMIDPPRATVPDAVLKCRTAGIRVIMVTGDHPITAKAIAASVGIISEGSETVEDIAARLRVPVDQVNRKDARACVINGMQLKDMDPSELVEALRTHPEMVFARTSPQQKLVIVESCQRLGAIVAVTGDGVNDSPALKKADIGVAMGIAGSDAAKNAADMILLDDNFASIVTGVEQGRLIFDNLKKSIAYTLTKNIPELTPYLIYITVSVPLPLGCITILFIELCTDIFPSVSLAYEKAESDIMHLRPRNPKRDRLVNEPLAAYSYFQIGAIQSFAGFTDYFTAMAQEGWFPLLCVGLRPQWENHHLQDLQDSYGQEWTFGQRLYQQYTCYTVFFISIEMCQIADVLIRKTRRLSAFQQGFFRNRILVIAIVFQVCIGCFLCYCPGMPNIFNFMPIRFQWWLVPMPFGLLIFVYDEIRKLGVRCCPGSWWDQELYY
T1 sequence (P18434 whole entry partner): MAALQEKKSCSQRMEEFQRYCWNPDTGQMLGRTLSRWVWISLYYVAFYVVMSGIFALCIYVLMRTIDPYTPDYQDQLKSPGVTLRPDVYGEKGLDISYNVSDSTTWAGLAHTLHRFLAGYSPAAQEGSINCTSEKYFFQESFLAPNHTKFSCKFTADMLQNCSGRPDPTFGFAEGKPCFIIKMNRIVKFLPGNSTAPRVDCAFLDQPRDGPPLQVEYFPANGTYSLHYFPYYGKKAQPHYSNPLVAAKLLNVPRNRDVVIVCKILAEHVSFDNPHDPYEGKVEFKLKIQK
Experimental: 3-1. Preparation of Gastric Vesicles
[…]. IX. Fraction and purification of K-ATPase-containing vesicles by zonal centrifugation and free-flow electrophoresis techinque. Biochem. Biophy. Acta. (BBA)-Biomembranes 465, 311-330, 1977). This matertal was lyophilized and stored at −70° C. The protein content of gastric vesicles was determined by the Bradford method using bovine serum albumin as a standard (Bradford M M, A rapid and sensitive method for the quantitation of microgram quantities of protein utilizing the principle of protein-dye binding. Anal Biochem. 72, 248-254, 1976).
3-2. Determination of Reversible Inhibition of Hog Gastric H^+/K^+-ATPase
Activity of H^+/K^+-ATPase in hog microsome (lyophilized vesicle) was measured by the inorganic phosphate released from ATP using an one-step calorimetric detection method at the concentration at which the test compounds have 50% inhibition of the proton pump (Chan K M, Delfert D, and Junger K D, A direct calorimetric assay for Ca^2+-stimulated ATPase activity. Anal Biochem, 157, 375-380, 1986). The mode of action of test compounds on H^+/K^+-ATPase was investigated according to the Washout method (Beil W, Staar U, and Sewing K F, Substituted thieno[3,4-d]imidazoles, a novel group of H^+/K+-ATPase inhibitors. Differentiation of their inhibition charactertstics from those of omeprazole. Eur. J. Pharmacol., 187, 455-67, 1990). […]

[3] = tested on: basal gastric acid secretion; experiment: Inhibitory effects on basal gastric acid secretion in pylorus-ligated rats (Shay's rat model); format: in vivo, Sprague Dawley (SD) rats; details: oral, one hour before pylorus ligation, total acid output 5 hours after ligation
Experimental: Inhibitory effects of the compounds of the present invention on basal gastric acid secretion were performed according to Shay's rat model (Shay, H., et al., 1945, gastroenterology, 5, 43-61). Male Sprague Dawley (SD) rats (200±10 g body weight) were divided into […] (n=5) and fasted for 24 hours with free access to water. Control group was orally administered with 0.5% methylcellulose alone and the other groups were orally administered with test compounds suspended in 0.5% methylcellulose solution at doses of 1, 3 and 10 mg/kg/5 ml one hour before pylorus ligation.
Under ether anesthesia, the abdomens of the rats were incised and then the pylorus was ligated. 5 hours after ligation, the animals were sacrificed, and the gastric contents were collected. The collected contents were centrifuged at 1,000×g for 10 minutes to obtain the gastric juice. Total acid output was measured by 0.01N NaOH volume (ueq/ml) for automatic titration of the gastric juice to pH 7.0 and the ED50s of test compounds were calculated using the Litchfield-Wilcoxon method. % inhibitory activity was calculated from the following equation and the results are shown in Table 2. % inhibitory activity of test compound=(total acid output of control group−total acid output of the group treated with test compounds)/total acid output of control group×100

Proton Pump (H^+/K^+-ATPase), sequence (P19156 2-1034 limits assumed): as the sequence (P19156 2-1034 limits assumed) above
Proton Pump (H^+/K^+-ATPase), sequence (P18434 whole entry partner): as the sequence (P18434 whole entry partner) above

Row | IC50 [1] [nM] | inhibition of H^+/K^+-ATPase activity after washout ([2]; after washout, compared with non-treated group) | inhibition of H^+/K^+-ATPase activity before washout ([2]; before washout, test compound at the concentration of 50% inhibition of the proton pump) [%] | Compound | ED50 [3] [mg/kg]
1 | 32 | did not inhibit | 50 | Cc1c(C)n(Cc2cccc(F)c2)c2c(N3CCc4ccccc4C3)nccc12.Cl [Example 480, 1-(3-fluorobenzyl)-7-(1,2,3,4-tetrahydroisoquinolin-2-yl)-2,3-dimethyl-1H-pyrrolo[2,3-c]pyridine hydrochloride] | 1.8
2 | 26 | – | – | C=CCn1c(C)c(C)c2ccnc(N3CCc4ccccc4C3C)c21.Cl (stereo not shown) [Example 553, 2-(1-allyl-2,3-dimethyl-1H-pyrrolo[2,3-c]pyridin-7-yl)-1-methyl-1,2,3,4-tetrahydroisoquinoline hydrochloride] | 2.1
3 | 63 | – | – | Cc1[nH]c2c(-c3ccc4ccccc4c3)nccc2c1C.Cl [Example 402, 2,3-dimethyl-7-(naphthalen-2-yl)-1H-pyrrolo[2,3-c]pyridine hydrochloride] | 11.2
4 | 320 | – | – | Cc1c(C)n(C)c2c(N3CCc4ccccc4C3)nccc12.Cl [Example 470, 7-(1,2,3,4-tetrahydroisoquinolin-2-yl)-1,2,3-trimethyl-1H-pyrrolo[2,3-c]pyridine hydrochloride] | 4.4
5 | 470 | – | – | CCCn1c(C)c(C)c2ccnc(N3CCc4ccccc4C3)c21.Cl [Example 473, 1-propyl-7-(1,2,3,4-tetrahydroisoquinolin-2-yl)-2,3-dimethyl-1H-pyrrolo[2,3-c]pyridine hydrochloride] | 2.8
6 | 146 | – | – | Cc1c(C)n(Cc2cccc(F)c2)c2c(N3CCc4ccccc4C3C)nccc12.Cl (stereo not shown) [Example 557, 2-[1-(3-fluorobenzyl)-2,3-dimethyl-1H-pyrrolo[2,3-c]pyridin-7-yl]-1-methyl-1,2,3,4-tetrahydroisoquinoline hydrochloride] | 4.1
7 | 360 | – | – | COc1ccc(Cn2c(C)c(C)c3ccnc(N4CCc5ccccc5C4)c32)cc1.Cl [Example 482, 1-(4-methoxybenzyl)-7-(1,2,3,4-tetrahydroisoquinolin-2-yl)-2,3-dimethyl-1H-pyrrolo[2,3-c]pyridine hydrochloride] | 2.4
8 | 49 | – | – | C=CCn1c(C)c(C)c2ccnc(N3CCc4cc(F)ccc4C3C)c21.Cl (stereo not shown) [Example 563, 2-(1-allyl-2,3-dimethyl-1H-pyrrolo[2,3-c]pyridin-7-yl)-6-fluoro-1-methyl-1,2,3,4-tetrahydroisoquinoline hydrochloride] | 3.5
9 | 420 | – | – | C=COCCn1c(C)c(C)c2ccnc(N3CCc4ccccc4C3)c21.Cl [Example 511, 1-(2-vinyloxyethyl)-7-(1,2,3,4-tetrahydroisoquinolin-2-yl)-2,3-dimethyl-1H-pyrrolo[2,3-c]pyridine hydrochloride] | 2.1
10 | 240 | – | – | CCCn1c(C)c(C)c2ccnc(NCc3ccc(Cl)cc3)c21.Cl [Example 229, 7-(4-chlorobenzylamino)-2,3-dimethyl-1-propyl-1H-pyrrolo[2,3-c]pyridine hydrochloride] | 2.2
